# Test system: A204 cells
# Test: Two-way combination growth inhibition, CellTiter-Glo cell viability, 72 h, Loewe additivity analysis
# Assay type: cell-based
# Conditions: FIG. 1a, compound crossed with itself (A×A, 1×1)
# Procedure: Cell lines were purchased from American Type Culture Collection (ATCC), German Collection of Microorganisms and Cell Cultures (DSMZ), and Japanese Collection of Research Bioresources (JCRB). Each line was cultured in its recommended growth medium. Cell line A375sq2 was made in accordance with the procedure set forth in J. Med. Chem. 2009, 52, 6189-6192, footnote 13.
# For Examples 1 to 71, cells were seeded into 384-well cell culture plates at initial densities ranging from 300 to 7500 cells per well in a 30 μL volume, depending on the growth rate of the cell line, so that adherent cells would remain at subconfluent densities by the end of the 72-hour treatment period. […] CellTiter-Glo® Luminescent Cell Viability Assay (Promega; Madison, Wis.) was used to determine the number of viable cells based on quantitation of the amount of ATP present, an indicator of metabolically active cells. Luminescence was measured with an EnVision® Multilabel Reader (Perkin Elmer; Waltham, Mass.) for each cell line at time zero (V0) before the addition of compounds, as well as after 72 hours of compound treatment (T72). Growth inhibition (GI) was calculated according to the following equations, where V72 was luminescence of DMSO control at 72 hours and T72 was luminescence of the compound-treated sample: if T72≥V0, then GI=100×(1−((T72−V0)/(V72−V0))); if T72<V0, then […]. […]
structure (smiles),measurement,value
"CC(C)[C@@H](CS(=O)(=O)C(C)C)N1C(=O)[C@@](C)(CC(=O)O)C[C@H](c2cccc(Cl)c2)[C@H]1c1ccc(Cl)cc1 [Compound A, 2-((3R,5R,6S)-5-(3-chlorophenyl)-6-(4-chlorophenyl)-1-((S)-1-(isopropylsulfonyl)-3-methylbutan-2-yl)-3-methyl-2-oxopiperidin-3-yl)acetic acid]",synergy score for the self-cross combination,0.621

# — patent US10881648B2, “Combination therapy including an MDM2 inhibitor and one or more additional pharmaceutically active agents for the treatment of cancers” (AMGEN INC., priority 2013, dated 2021)
